Source: patent US20260069588A1, “VEPDEGESTRANT FOR USE IN TREATING CANCER” (Arvinas Operation, Inc., priority 2022, published 2026)
Like-named read-outs stand apart in the source and are kept apart here. Marks after values point to notes of the source that are not given here. Each block holds one compound with its values, some of them ahead of it.

What was measured:
MCF7 cells = experiment: Live-cell imaging proliferation, MCF7; type: cell-based; conditions: Homo sapiens, 144 h; MCF7, up to 6 days
Text: (§1) Full growth of the cells over this time period is shown by extent of cell confluence with dimethyl sulfoxide (DMSO).

T47D cells = experiment: Live-cell imaging proliferation, T47D; type: cell-based; conditions: Homo sapiens, 144 h, up to 6 days
Text: as §1

hERG channel = hERG channel (Homo sapiens, UniProt Q12809); experiment: hERG channel inhibition; type: biochemical
hERG channel, sequence (Q12809 whole entry): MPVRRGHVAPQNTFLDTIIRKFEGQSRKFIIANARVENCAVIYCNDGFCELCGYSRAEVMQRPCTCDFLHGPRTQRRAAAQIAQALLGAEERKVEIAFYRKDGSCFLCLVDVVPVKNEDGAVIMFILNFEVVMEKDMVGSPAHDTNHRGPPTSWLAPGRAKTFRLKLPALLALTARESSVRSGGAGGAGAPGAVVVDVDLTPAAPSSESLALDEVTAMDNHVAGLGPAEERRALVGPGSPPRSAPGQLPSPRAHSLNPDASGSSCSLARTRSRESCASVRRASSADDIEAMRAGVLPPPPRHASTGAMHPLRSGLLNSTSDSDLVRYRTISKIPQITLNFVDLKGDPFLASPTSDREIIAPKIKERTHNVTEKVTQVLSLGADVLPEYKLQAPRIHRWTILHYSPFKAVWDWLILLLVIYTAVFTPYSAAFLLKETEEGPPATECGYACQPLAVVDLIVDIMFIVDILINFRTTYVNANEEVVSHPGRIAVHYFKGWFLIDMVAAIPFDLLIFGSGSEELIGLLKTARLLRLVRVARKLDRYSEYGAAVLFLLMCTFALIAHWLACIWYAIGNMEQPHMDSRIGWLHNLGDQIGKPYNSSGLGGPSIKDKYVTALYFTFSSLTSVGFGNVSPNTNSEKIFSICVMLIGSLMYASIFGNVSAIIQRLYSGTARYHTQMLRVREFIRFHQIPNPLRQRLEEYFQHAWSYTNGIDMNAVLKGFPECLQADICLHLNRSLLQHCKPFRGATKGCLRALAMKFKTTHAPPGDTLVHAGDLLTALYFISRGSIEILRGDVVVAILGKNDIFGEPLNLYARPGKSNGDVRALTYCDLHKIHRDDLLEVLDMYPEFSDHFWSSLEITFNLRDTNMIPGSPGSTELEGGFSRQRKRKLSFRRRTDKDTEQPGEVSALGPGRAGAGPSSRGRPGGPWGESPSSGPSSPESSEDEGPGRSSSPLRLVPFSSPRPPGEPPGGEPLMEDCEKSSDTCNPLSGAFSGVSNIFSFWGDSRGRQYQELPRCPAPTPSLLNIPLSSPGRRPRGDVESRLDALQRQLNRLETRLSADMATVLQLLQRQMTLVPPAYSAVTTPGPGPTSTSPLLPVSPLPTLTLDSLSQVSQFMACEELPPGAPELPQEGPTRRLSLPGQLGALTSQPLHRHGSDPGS
Description: The pivotal nonclinical safety studies were conducted in the US in accordance with GLP regulations per the US 21 CFR Part 58. These include the cardiovascular safety pharmacology study in dogs, the pivotal 28-day and 3-month repeat-dose toxicology studies in rats and dogs, and an in vitro phototoxicity assay. The bacterial reverse mutation assay, in vitro micronucleus assay, and 2 in vitro hERG studies were conducted in the UK in accordance with the UK Good Laboratory Practice Monitoring Authority, MHRA: Good Laboratory Practice Regulations 1999, Statutory Instrument 1999 No. 3106 as amended by the Good Laboratory Practice (Codification Amendments Etc.) Regulations, 2004, Statutory Instrument 2004, No. 994; and the OECD GLP and OECD Principles on Good Laboratory Practice ENV/MC/CHEM (98) 17 (Revised in 1997, Issued January 1998).accordance with the OECD Principles of Good Laboratory Practice and as accepted by Regulatory Authorities throughout the European Union, United States of America (FDA), Japan (MHLW), and other countries that are signatories to the OECD Mutual Acceptance of Data Agreement.

[1] = Interconversion (epimerization) Compound A/Compound B in animals; type: in vivo, mouse, rat, dog, and monkey
[2] = human, in vivo
clinical = conditions: human, in vivo
ER = biological target: T1, ER (Homo sapiens, UniProt P03372); experiment: ER degradation in ER+ cell lines (MCF7); type: cell-based; design: endogenous in cells; host or cells: MCF7 (and a panel of unnamed ER+ cell lines)
T1 sequence (P03372 1-595): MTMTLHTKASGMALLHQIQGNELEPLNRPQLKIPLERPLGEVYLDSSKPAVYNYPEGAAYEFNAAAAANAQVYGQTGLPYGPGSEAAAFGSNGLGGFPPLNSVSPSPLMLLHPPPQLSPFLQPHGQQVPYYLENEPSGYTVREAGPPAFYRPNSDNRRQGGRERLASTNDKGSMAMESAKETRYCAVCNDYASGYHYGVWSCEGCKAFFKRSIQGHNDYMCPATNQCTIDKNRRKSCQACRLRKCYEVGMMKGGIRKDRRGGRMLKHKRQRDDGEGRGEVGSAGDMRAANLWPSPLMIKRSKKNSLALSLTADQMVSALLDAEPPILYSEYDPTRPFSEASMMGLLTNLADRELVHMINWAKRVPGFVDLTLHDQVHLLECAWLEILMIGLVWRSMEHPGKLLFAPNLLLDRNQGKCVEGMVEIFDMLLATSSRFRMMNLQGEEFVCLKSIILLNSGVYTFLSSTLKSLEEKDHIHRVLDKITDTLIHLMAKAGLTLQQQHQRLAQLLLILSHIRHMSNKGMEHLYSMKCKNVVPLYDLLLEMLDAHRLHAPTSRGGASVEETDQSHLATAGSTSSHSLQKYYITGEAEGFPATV

[3] = Phase 2 study of Compound A or anastrozole in early ER+/HER2− breast cancer: adverse events; conditions: TEAE, Treatment Related per title; Compound A 200 mg N = 23, Anastrozole 1 mg N = 13

GI50 (MCF7 cells): 0.4 nM | GI50 (T47D cells): 0.8 nM
Structure (SMILES): C[C@]12CC[C@@H]3c4ccc(O)cc4C[C@@H](CCCCCCCCC[S+]([O-])CCCC(F)(F)C(F)(F)F)[C@H]3[C@@H]1CC[C@@H]2O (stereo partly shown) [fulvestrant, reference compound]

extent of epimerization ([1]; monkey): negligible | exposure of Compound B compared to Compound A ([1]; preclinical data): < 26% | Rac (AUCtau) ([2]; 30 mg): 7.1 | Tmax ([2]; 30 mg): 6.0 h | Rac (AUCtau) ([2]; 60 mg): 7.3 | Rac (AUCtau) ([2]; 100 mg): 6.1 ^f | Tmax ([2]; 100 mg): 6.0 h | Rac (AUCtau) ([2]; 120 mg): 5.7 | Tmax ([2]; 120 mg): 6.0 h | Rac (AUCtau) ([2]; 180 mg): 6.8 | Tmax ([2]; 180 mg): 5.9 h | Rac (AUCtau) ([2]; 200 mg): 5.1 | Tmax ([2]; 200 mg): 5.9 h | MR AUCtau ([2]; 250 mg): 0.36 | Tmax ([2]; 250 mg): 4.1 h | Rac (AUCtau) ([2]; 360 mg): 5.9 | Tmax ([2]; 360 mg): 6.0 h | Rac (AUCtau) ([2]; 500 mg): 5.9 | Tmax ([2]; 500 mg): 6.0 h | Rac (AUCtau) ([2]; 700 mg): 3.7 ^g | Tmax ([2]; 700 mg): 7.8 ^g h | half-life (clinical; 30 mg): 104 h | Tmax (clinical; 30 mg): 8 h | half-life (clinical; 60 mg): 110 h | half-life (clinical; 100 mg): 99 h | Tmax (clinical; 100 mg): 7.8 h | half-life (clinical; 120 mg): 93 h | Tmax (clinical; 120 mg): 7.8 h | half-life (clinical; 180 mg): 92 h | Tmax (clinical; 180 mg): 7.8 h | half-life (clinical; 200 mg): 85 h | Tmax (clinical; 200 mg): 7.8 h | AUC(0-t) (clinical; 250 mg, AUCtau (AUC0-8)): 0.179 µg·h/mL | AUC(0-t) (clinical; 250 mg, AUCtau (AUC0-12)): 7.39 µg·h/mL | Tmax (clinical; 250 mg): 7.8 h | half-life (clinical; 360 mg): 96 h | Tmax (clinical; 360 mg): 7.8 h | half-life (clinical; 500 mg): 96 h | Tmax (clinical; 500 mg): 7.8 h | half-life (clinical; 700 mg): 52 h | Tmax (clinical; 700 mg): 7.8 h | Tmax (clinical): 7.8 h | ER degradation (ER): does not degrade the ER
Structure (SMILES): O=C1CC[C@@H](N2Cc3cc(N4CCN(CC5CCN(c6ccc([C@@H]7c8ccc(O)cc8CC[C@@H]7c7ccccc7)cc6)CC5)CC4)ccc3C2=O)C(=O)N1 [Compound B]
IC50 (hERG channel): > 20000 nM | unbound Cmax margin to hERG IC50 (hERG channel; recommended Phase 3 dose of 200 mg): ~499 ×

Structure (SMILES): CC(C)(C#N)c1cc(Cn2cncn2)cc(C(C)(C)C#N)c1 [Anastrozole]
Anemia [3]: 1 (7.7) n (%) | Arthralgia [3]: 1 (7.7) n (%) | Asphyxia [3]: 0 n (%) | Asthenia [3]: 0 n (%) | Blood and lymphatic system disorders [3]: 1 (7.7) n (%) | Blood uric acid increased [3]: 0 n (%) | Breast pain [3]: 0 n (%) | Cardiac disorders [3]: 0 n (%) | Constipation [3]: 1 (7.7) n (%) | Diarrhea [3]: 0 n (%) | Dyspepsia [3]: 1 (7.7) n (%) | Fatigue [3]: 0 n (%) | Gastrointestinal disorders [3]: 1 (7.7) n (%) | General disorders and administration site conditions [3]: 0 n (%) | Hematocrit decreased [3]: 1 (7.7) n (%) | Heparin-induced thrombocytopenia [3]: 0 n (%) | Hepatobiliary disorders [3]: 0 n (%) | Hot flush [3]: 0 n (%) | Hyperbilirubinemia [3]: 0 n (%) | Hypercalcemia [3]: 0 n (%) | Hyperglycemia [3]: 0 n (%) | Hypernatremia [3]: 0 n (%) | Hypertransaminasemia [3]: 0 n (%) | Hypokalemia [3]: 0 n (%) | Hyponatremia [3]: 0 n (%) | Injury, poisoning and procedural complications [3]: 0 n (%) | Insomnia [3]: 0 n (%) | Investigations [3]: 1 (7.7) n (%) | Lymphopenia [3]: 1 (7.7) n (%) | Metabolism and nutrition disorders [3]: 0 n (%) | Musculoskeletal and connective tissue disorders [3]: 1 (7.7) n (%) | Myalgia [3]: 1 (7.7) n (%) | Nervous system disorders [3]: 0 n (%) | Odynophagia [3]: 0 n (%) | Procedural pain [3]: 0 n (%) | Pruritus [3]: 0 n (%) | Psychiatric disorders [3]: 0 n (%) | Pyrexia [3]: 0 n (%) | Reproductive system and breast disorders [3]: 0 n (%) | Respiratory, thoracic and mediastinal disorders [3]: 0 n (%) | Sinus bradycardia [3]: 0 n (%) | Skin and subcutaneous tissue disorders [3]: 0 n (%) | Somnolence [3]: 0 n (%) | Stomatitis [3]: 0 n (%) | Tension [3]: 0 n (%) | Vascular disorders [3]: 0 n (%) | With Any Adverse Event [3]: 2 (15.4) n (%)
